# Laboratory results taken from patent US8956622B2, “Peptidic antagonists of class III semaphorins/neuropilins complexes” (INSERM—Institut National de la Sante et de la Recherche …, priority 2005, dated 2015).
# Key:
# NRP1 = molecular target: T1, NRP1 (Homo sapiens, UniProt O14786); assay: AP-Sema3A binding to NRP1-expressing COS cells (optical density per cell); settings: peptide 10^−9 M, 1 hour pre-incubation
# T1 construct: mutations were introduced into the TM domain of a full length NRP1; expressed in transfected cells; host or cells: COS-1 cells, pBK-CMV plasmid (cDNA provided by Pr. Puschel)
# Protocol: NRP1 expressing COS cells were incubated with AP-Sema3A, a fusion protein of Sema3A and the secreted alkaline phosphatase (BAGNARD et al., 1998).
# Wild-type COS cells or NRP1-expressing COS cells (COS-NRP1) were cultured on 12-wells plates on poly-L-lysine-coated glass coverslips (0.005 mg/ml). After one-hour incubation with pTM-NRP1 or pTM-NRP1^mut (10^−9M) in serum-free medium at 37° C., the culture medium was replaced by conditioned medium containing alkaline phosphatase-coupled Sema3A (AP-Sema3A; BAGNARD et al., 1998) obtained from AP-Sema3A stably expressing HEK cells for 90 mn. Conditioned medium without semaphorin served as a control (obtained from non-transfected HEK). Cells were washed three times with PBS and fixed in 4% formaldehyde before transfer in a new dish. After three washes in PBS, the plate was warmed for 50 mn at 65° C. Cells were subsequently incubated with 1 ml of alkaline phosphatase substrate (NBT/BCIP, SIGMA) in the dark. After 45 mn, substrate was removed and glass coverslips were rinsed. Pictures were acquired with a conventional microscope and analyzed with AxioVision LE Zeiss software. For each condition tested, about 60 cells were analyzed to determine binding levels as a function of optical density. Statistical analysis was performed by using a Student's t test.
# C6 glioma = C6 glioma cells pre-incubated with peptide and injected into the striatum, tumour development at 8 days; type: in vivo, rats
# Protocol: The rat C6 glioma cell line, which is a good model of human glioma (DAI and HOLLAND, Biochim. Biophys. Acta, vol. 1551, p: M19-27, 2001), has been used to investigate how the blockade of NRP1 by using our peptidic strategy (pTM-NRP1) may interfere with cell migration and dissemination.
# C6 cells (ATCC CCL-107) were stained using PKH26 (Sigma). Cells were incubated with peptides (pTM-NRP1 10^−8M or mutated pTM-NRP1 10^−8M) prior to injections for at least 2 h on ice in culture medium (composed of MEM with 5000 u/ml penicillin, 5 mg/ml streptomycin, 200 mM L-glutamine and 10% fetal calf serum). Injections of 10^6 cells were performed using a stereotaxic frame according to the following coordinates: antero-posterior, +1.6 mm relative to Bregma; L, +2 mm; H, +5 mm relative to the cortical surface.
# All injections were performed in the left striatum.
# Following a survival period of 8 days, the animals (3 groups of 4 rats) were killed by a lethal intra-peritoneal injection of pentobarbital before trans-cardiac perfusion with a pre-rinse of 100 ml PBS followed by 500 ml of 2% formaldehyde. The brains were post-fixed during 2 hours at 4° C. and sagittal sections (70 μm) were prepared on a vibratome.
# One group of sections were mounted in PBS-glycerol (v/v) for microscopic observation, and another one was treated for immunostaining of CD34. […]
# [1] = test system: VEGF165 signalling in C6 cells; assay: VEGF165-induced migration of C6 tumour cell aggregates in 3D matrix (plasma clot); type: cell-based; settings: VEGF165 50 ng/ml, peptide 10^−8 M
# Protocol: NRP1 is a receptor of VEGF (NEUFELD et al., Adv. Exp. Med. Biol., vol. 515, p: 81-90, 2002). We therefore verified that pTM-NRP1 can antagonize VEGF signalling in C6 cells. To this end, C6 tumour cell aggregates prepared as previously described (see BAGNARD et al., 1998; and NASARRE et al., Neoplasia, vol. 7, p: 180-189, 2005) were grown in the 3D matrix (plasma clot) and treated with VEGF165.
# T1 sequence (O14786 22-923): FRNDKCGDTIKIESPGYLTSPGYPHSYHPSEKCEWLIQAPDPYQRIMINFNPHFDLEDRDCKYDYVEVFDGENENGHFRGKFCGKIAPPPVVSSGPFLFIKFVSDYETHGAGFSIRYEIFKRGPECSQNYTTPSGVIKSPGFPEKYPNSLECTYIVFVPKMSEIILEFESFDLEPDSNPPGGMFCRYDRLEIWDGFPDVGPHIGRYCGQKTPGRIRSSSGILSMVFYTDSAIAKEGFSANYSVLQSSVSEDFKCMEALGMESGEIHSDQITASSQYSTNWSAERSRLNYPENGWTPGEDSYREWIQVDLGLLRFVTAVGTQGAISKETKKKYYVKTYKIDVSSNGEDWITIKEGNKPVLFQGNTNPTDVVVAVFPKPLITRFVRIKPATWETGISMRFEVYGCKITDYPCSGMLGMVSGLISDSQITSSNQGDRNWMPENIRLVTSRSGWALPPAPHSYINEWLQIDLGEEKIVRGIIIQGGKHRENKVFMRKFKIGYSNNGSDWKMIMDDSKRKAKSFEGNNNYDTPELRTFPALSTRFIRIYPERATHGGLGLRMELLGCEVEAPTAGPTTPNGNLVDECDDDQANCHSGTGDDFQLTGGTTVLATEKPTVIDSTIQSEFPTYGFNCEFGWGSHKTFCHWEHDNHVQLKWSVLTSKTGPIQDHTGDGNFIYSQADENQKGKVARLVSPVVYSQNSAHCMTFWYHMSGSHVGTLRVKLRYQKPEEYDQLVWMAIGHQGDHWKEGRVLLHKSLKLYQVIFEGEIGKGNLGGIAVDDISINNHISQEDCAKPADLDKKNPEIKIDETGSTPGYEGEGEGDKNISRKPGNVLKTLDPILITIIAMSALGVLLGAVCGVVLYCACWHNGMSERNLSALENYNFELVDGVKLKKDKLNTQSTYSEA
sequence,measurement,setting,value
ILITIIAMSALGVLLGAVCGVVL [pTM-NRP1],binding of AP-Sema3A to NRP1-expressing COS cells,NRP1,significantly reduced
same,tumour size,"C6 glioma; C6 cells treated with peptide 10^−8 M prior to injection in the left striatum, 8 days, n=4",strong reduction
same,"immunoreactivity for CD34, a marker of neoangiogenesis","C6 glioma; C6 cells treated with peptide 10^−8 M prior to injection, brain sections at 8 days",strong reduction
same,VEGF165-dependent C6 cells migration out of aggregates,[1],suppressed
